# Results reported in PubChem BioAssay (NCI).
#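 Dose response: 5 concentrations. Exposure: 48 h. Format: 96-well plates. Endpoint: linear interpolation; highest concentration if not reached. TGI is the concentration that stops growth completely.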
# Legend:
# Experiment in all cases: DTP human tumour cell line panel, 48 h
# OVCAR-4 ovarian = tested on: OVCAR-4 ovarian
# SR leukemia = tested on: SR leukemia
# SK-MEL-28 melanoma = tested on: SK-MEL-28 melanoma
# A549 NSCLC = tested on: A549 NSCLC
# HCT-15 colon = tested on: HCT-15 colon
# SF-268 CNS = tested on: SF-268 CNS
# HCC-2998 colon = tested on: HCC-2998 colon
# SN12C renal = tested on: SN12C renal
# SF-295 CNS = tested on: SF-295 CNS
# MCF7 breast = tested on: MCF7 breast
Structure (SMILES),TGI (OVCAR-4 ovarian),TGI (SR leukemia),TGI (SK-MEL-28 melanoma),TGI (A549 NSCLC),TGI (HCT-15 colon),TGI (SF-268 CNS),TGI (HCC-2998 colon),TGI (SN12C renal),TGI (SF-295 CNS),TGI (MCF7 breast)
COCC(=O)[C@]1(O)Cc2c(O)c3c(c(O)c2[C@@H](OC2CC(N)C(O)C(C)O2)C1)C(=O)c1c(OC)cccc1C3=O (stereo not given in full),1.56 µM,0.159 µM,0.398 µM,17.4 µM,0.498 µM,0.267 µM,0.691 µM,3.42 µM,1.34 µM,–
O=C1Nc2ccccc2NC1C1OC(c2ccccc2)=CC1=O (stereo not given),> 100 µM,> 100 µM,> 100 µM,> 100 µM,> 100 µM,> 100 µM,> 100 µM,–,> 100 µM,> 100 µM
O=C(c1ccc(Cl)cc1)N1N=C(c2ccc(Cl)cc2)CC1(O)c1cc(F)c(Cl)cc1Cl (stereo not given),51.5 µM,–,> 100 µM,> 100 µM,> 100 µM,> 100 µM,47.1 µM,73.4 µM,> 100 µM,> 100 µM
Brc1cccc(C2(CCCC3(c4cccc(Br)n4)OCCO3)OCCO2)n1,> 100 µM,–,> 100 µM,> 100 µM,> 100 µM,71.5 µM,> 100 µM,> 100 µM,> 100 µM,> 100 µM
COC(=O)C1(NC(=O)C(N)CC(=O)O)C(C)C1C (stereo not given),> 100 µM,> 100 µM,> 100 µM,> 100 µM,> 100 µM,> 100 µM,–,> 100 µM,> 100 µM,> 100 µM
CC(C)(C)OC(=O)NC(CCCCNC(=O)OCc1ccccc1)C(=O)NC(CCCCNC(=O)OCc1ccccc1)C(=O)ON1C(=O)CCC1=O (stereo not given),–,> 100 µM,> 100 µM,> 100 µM,> 100 µM,–,> 100 µM,> 100 µM,–,> 100 µM
Cc1ccc(S(=O)(=Nc2ccccc2)C(C(C)C)C(C)(C)Cl)cc1 (stereo not given),> 50 µM,49.7 µM,–,> 50 µM,> 50 µM,> 50 µM,> 50 µM,> 50 µM,> 50 µM,> 50 µM
CCN(CC)C(=S)SNCCc1ccc(S(N)(=O)=O)cc1,35.6 µM,> 49.4 µM,25.8 µM,26.5 µM,38.5 µM,35.9 µM,50.6 µM,27.2 µM,47.5 µM,–
CCOC(=O)/C=C(/C(=O)OCC)n1c(=O)c(C)cn(C2CC(N=[N+]=[N-])C(CO)O2)c1=O (stereo not given),> 100 µM,–,84.6 µM,> 100 µM,> 100 µM,> 100 µM,31.4 µM,> 100 µM,> 100 µM,50.2 µM
[N-]=[N+]=C1CNC(=O)NC1=O,> 100 µM,–,> 100 µM,> 100 µM,> 100 µM,> 100 µM,> 100 µM,> 100 µM,> 100 µM,> 100 µM
CC1CCC2c3c([nH]c4ccccc34)C3C(=O)N(C4CCCCC4)C(=O)C3C2C1 (stereo not given),–,> 100 µM,34.1 µM,50.3 µM,> 100 µM,29.8 µM,> 100 µM,> 100 µM,37.5 µM,–
Cc1ccc([N+](=O)[O-])cc1S(=O)(=O)Nc1ccc(C2=NN(c3ccc([N+](=O)[O-])cc3[N+](=O)[O-])C(c3ccccc3O)C2)cc1 (stereo not given),> 100 µM,> 100 µM,> 100 µM,> 100 µM,> 100 µM,> 100 µM,–,54 µM,> 100 µM,> 100 µM
O=C1C[C@H](c2ccccc2)C2(C(=O)c3ccccc3C2=O)[C@@H](c2ccccc2)C1,> 100 µM,> 100 µM,> 100 µM,–,> 100 µM,–,> 100 µM,> 100 µM,> 100 µM,83 µM
CC(=O)c1ccc(NC(=O)/C(=N\NC(N)=O)C(C#N)CC(C)(C)C=O)cc1 (stereo not given),> 100 µM,> 100 µM,> 100 µM,> 100 µM,> 100 µM,> 100 µM,> 100 µM,> 100 µM,> 100 µM,–
CC(=O)O[C@H]1CC[C@@]2(C)C(=CC[C@@H]3[C@@H]2CC[C@]2(C)c4nc(N)c(C#N)cc4C[C@@H]32)C1,> 86.9 µM,–,> 100 µM,> 100 µM,> 42.6 µM,> 100 µM,> 100 µM,> 100 µM,> 100 µM,> 100 µM
C[C@H](CC[C@@H](O)C(C)(C)O)[C@H]1CC[C@@]2(C)[C@@H]3CC=C4[C@@H](CC[C@H](OC5OC(CO)C(O)C(O)C5O)C4(C)C)[C@]3(C)C(=O)C[C@]12C (stereo not given in full),> 100 µM,–,77.8 µM,> 100 µM,> 100 µM,> 100 µM,> 100 µM,> 100 µM,> 100 µM,> 100 µM
